Measured values taken from paper PMC9959817, “Flow-Based Fmoc-SPPS Preparation and SAR Study of Cathelicidin-PY Reveals Selective Antimicrobial Activity” (Molecules, 2023).
In brackets after ≈: the same amount, converted by molar mass. Like-named read-outs stand apart in the source and are kept apart here. Where a SMILES comes first, the peptide text is derived from it. Bridges are numbered along the chain shown (N, C = ends). [ ]: non-standard residue; d: D form. Dab = NCC[C@H](N)C(=O)O

Tests used:
Assay in all cases: microbe, parasite or virus in culture
P. aeruginosa (SVB-B9) = format: cell-based, Pseudomonas aeruginosa
Excerpt: (§1) As we were primarily interested in the clinical potential of cathelicidin-PY (1) and its analogues 2–9, cation-adjusted Mueller-Hinton broth (CAMHB) was implemented during our in vitro antimicrobial screening towards bacteria. However, non-cation adjusted Mueller Hinton broth (MHB) was also implemented to evaluate the cation sensitivity of these AMPs. In each medium, compounds 1–9 were subjected to minimum inhibitory concentration (MIC) assays with E. coli (ATCC 25922), P. aeruginosa (SVB-B9), and S. aureus (ATCC 29213), in accordance with CLSI microbroth dilution protocols (Table 1). It is noteworthy, however, that the initial report of cathelicidin-PY’s isolation documented MIC assays performed in Luria Broth (LB). Furthermore, antifungal activity towards C. albicans was investigated.
(§2) Staphylococcus aureus ATCC 29213, Pseudomonas aeruginosa (SVB-B9) (type strain), and Escherichia coli ATCC 25,922 were grown in either non-cation-adjusted or cation-adjusted Mueller Hinton (MH) broth at 37 °C with shaking (200 rpm). MIC assays were performed in technical triplicate in accordance with the CLSI-recommended protocol. All assays were performed independently on three occasions, with the reported MIC defined as the lowest concentration for which agreement was observed consistently for all replicates.

S. aureus (ATCC 29213) = format: cell-based, Staphylococcus aureus; conditions: read-out: Minimum Inhibitory Concentration
Excerpt: as §1, §2

C. albicans (SC5314) = format: cell-based, Candida albicans; conditions: read-out: Minimum Inhibitory Concentration
Excerpt: as §1
Antimicrobial susceptibility of Candida albicans SC5314 (type strain) was assessed by broth microdilution in RPMI 1640 media in accordance with the CLSI recommended protocols. All assays were performed independently on three occasions, with the reported MIC defined as the lowest concentration for which agreement was observed consistently for all replicates.

MIC (S. aureus (ATCC 29213); ATCC 29213) | MIC (C. albicans (SC5314); SC5314) | Structure (SMILES) | also measured
– | – | C[C@@H]1[C@H](O)[C@@H](C)/C=C/C=C/C=C/C=C/C=C/C=C/C=C/[C@H](O[C@@H]2O[C@H](C)[C@@H](O)[C@H](N)[C@@H]2O)C[C@@H]2O[C@](O)(C[C@@H](O)C[C@@H](O)[C@H](O)CC[C@@H](O)C[C@@H](O)CC(=O)O[C@H]1C)C[C@H](O)[C@H]2C(=O)O [A, Amphotericin B, reference compound] | MIC (P. aeruginosa (SVB-B9); Pseudomonas aeruginosa, P. aeruginosa SVB-B9 type strain, cation-adjusted Mueller-Hinton broth (CAMHB), 37 °C, technical triplicate, three independent occasions, read-out: Minimum Inhibitory Concentration): 2 µM (≈ 1.85 µg/mL); MIC (S. aureus (ATCC 29213); S. aureus ATCC 29213, non-cation-adjusted Mueller-Hinton broth (MHB), 37 °C, technical triplicate, three independent occasions): >64 µM; MIC (S. aureus (ATCC 29213); Staphylococcus aureus, ATCC29213, S. aureus ATCC 29213, cation-adjusted Mueller-Hinton broth (CAMHB), 37 °C, technical triplicate, three independent occasions): > 64 µM; MIC (C. albicans (SC5314); Candida albicans, C. albicans SC5314 type strain, RPMI 1640 media, three independent occasions): 1 µM (≈ 0.924 µg/mL)
>64 µM | >64 µM | CC[C@H](C)[C@H](NC(=O)[C@H](Cc1c[nH]cn1)NC(=O)[C@H](CO)NC(=O)[C@@H](NC(=O)[C@@H](NC(=O)[C@@H](NC(=O)[C@@H](NC(=O)[C@H](CCCNC(=N)N)NC(=O)[C@H](CC(C)C)NC(=O)[C@H](CCCCN)NC(=O)[C@H](CCC(=O)O)NC(=O)[C@H](CCCCN)NC(=O)[C@H](CC(C)C)NC(=O)[C@H](CCCCN)NC(=O)[C@@H]1CCCCNC(=O)CC[C@H](NC(=O)[C@H](CCCCN)NC(=O)[C@@H](N)CCCNC(=N)N)C(=O)N[C@@H](CC(N)=O)C(=O)N[C@@H](Cc2ccccc2)C(=O)N[C@@H](CC(C)C)C(=O)N1)[C@@H](C)O)C(C)C)[C@@H](C)CC)[C@@H](C)O)C(=O)N[C@@H](CC(=O)O)C(=O)N[C@@H](CCCCN)C(=O)N[C@H](C(=O)N[C@@H](CC(C)C)C(=O)N[C@@H](CCCNC(=N)N)C(=O)N1CCC[C@H]1C(=O)N[C@@H](CCC(N)=O)C(=O)NCC(=O)O)C(C)C [Compound 4] (H-RKENFLKKLKEKLRTVITSHIDKVLRPQG-OH; lactam 3-7) | –
>64 µM | >64 µM | CC[C@H](C)[C@H](NC(=O)[C@H](Cc1c[nH]cn1)NC(=O)[C@H](CO)NC(=O)[C@@H](NC(=O)[C@@H](NC(=O)[C@@H](NC(=O)[C@@H](NC(=O)[C@H](CCCNC(=N)N)NC(=O)[C@H](CC(C)C)NC(=O)[C@H](CCCCN)NC(=O)[C@H](CCC(=O)O)NC(=O)[C@H](CCCCN)NC(=O)[C@H](CC(C)C)NC(=O)[C@H](CCCCN)NC(=O)[C@@H]1CCCCNC(=O)C[C@H](NC(=O)[C@H](CCCCN)NC(=O)[C@@H](N)CCCNC(=N)N)C(=O)N[C@@H](CC(N)=O)C(=O)N[C@@H](Cc2ccccc2)C(=O)N[C@@H](CC(C)C)C(=O)N1)[C@@H](C)O)C(C)C)[C@@H](C)CC)[C@@H](C)O)C(=O)N[C@@H](CC(=O)O)C(=O)N[C@@H](CCCCN)C(=O)N[C@H](C(=O)N[C@@H](CC(C)C)C(=O)N[C@@H](CCCNC(=N)N)C(=O)N1CCC[C@H]1C(=O)N[C@@H](CCC(N)=O)C(=O)NCC(=O)O)C(C)C [Compound 5] (H-RKDNFLKKLKEKLRTVITSHIDKVLRPQG-OH; lactam 3-7) | –
>64 µM | >64 µM | CC[C@H](C)[C@H](NC(=O)[C@H](Cc1c[nH]cn1)NC(=O)[C@H](CO)NC(=O)[C@@H](NC(=O)[C@@H](NC(=O)[C@@H](NC(=O)[C@@H](NC(=O)[C@H](CCCNC(=N)N)NC(=O)[C@H](CC(C)C)NC(=O)[C@H](CCCCN)NC(=O)[C@H](CCC(=O)O)NC(=O)[C@H](CCCCN)NC(=O)[C@H](CC(C)C)NC(=O)[C@H](CCCCN)NC(=O)[C@@H]1CCC(=O)NCCCC[C@H](NC(=O)[C@H](CCCCN)NC(=O)[C@@H](N)CCCNC(=N)N)C(=O)N[C@@H](CC(N)=O)C(=O)N[C@@H](Cc2ccccc2)C(=O)N[C@@H](CC(C)C)C(=O)N1)[C@@H](C)O)C(C)C)[C@@H](C)CC)[C@@H](C)O)C(=O)N[C@@H](CC(=O)O)C(=O)N[C@@H](CCCCN)C(=O)N[C@H](C(=O)N[C@@H](CC(C)C)C(=O)N[C@@H](CCCNC(=N)N)C(=O)N1CCC[C@H]1C(=O)N[C@@H](CCC(N)=O)C(=O)NCC(=O)O)C(C)C [Compound 6] (H-RKKNFLEKLKEKLRTVITSHIDKVLRPQG-OH; lactam 3-7) | Minimum Inhibitory Concentration (P. aeruginosa (SVB-B9); SVB-B9): 4 to 8 µM
>64 µM | >64 µM | CC[C@H](C)[C@H](NC(=O)[C@H](Cc1c[nH]cn1)NC(=O)[C@H](CO)NC(=O)[C@@H](NC(=O)[C@@H](NC(=O)[C@@H](NC(=O)[C@@H](NC(=O)[C@H](CCCNC(=N)N)NC(=O)[C@H](CC(C)C)NC(=O)[C@H](CCCCN)NC(=O)[C@H](CCC(=O)O)NC(=O)[C@H](CCCCN)NC(=O)[C@H](CC(C)C)NC(=O)[C@H](CCCCN)NC(=O)[C@@H]1CC(=O)NCCCC[C@H](NC(=O)[C@H](CCCCN)NC(=O)[C@@H](N)CCCNC(=N)N)C(=O)N[C@@H](CC(N)=O)C(=O)N[C@@H](Cc2ccccc2)C(=O)N[C@@H](CC(C)C)C(=O)N1)[C@@H](C)O)C(C)C)[C@@H](C)CC)[C@@H](C)O)C(=O)N[C@@H](CC(=O)O)C(=O)N[C@@H](CCCCN)C(=O)N[C@H](C(=O)N[C@@H](CC(C)C)C(=O)N[C@@H](CCCNC(=N)N)C(=O)N1CCC[C@H]1C(=O)N[C@@H](CCC(N)=O)C(=O)NCC(=O)O)C(C)C [Compound 7] (H-RKKNFLDKLKEKLRTVITSHIDKVLRPQG-OH; lactam 3-7) | –
>64 µM | >64 µM | CC[C@H](C)[C@H](NC(=O)[C@H](Cc1c[nH]cn1)NC(=O)[C@H](CO)NC(=O)[C@@H](NC(=O)[C@@H](NC(=O)[C@@H](NC(=O)[C@@H](NC(=O)[C@H](CCCNC(=N)N)NC(=O)[C@H](CC(C)C)NC(=O)[C@H](CCCCN)NC(=O)[C@H](CCC(=O)O)NC(=O)[C@H](CCCCN)NC(=O)[C@H](CC(C)C)NC(=O)[C@H](CCCCN)NC(=O)[C@@H]1CCNC(=O)CC[C@H](NC(=O)[C@H](CCCCN)NC(=O)[C@@H](N)CCCNC(=N)N)C(=O)N[C@@H](CC(N)=O)C(=O)N[C@@H](Cc2ccccc2)C(=O)N[C@@H](CC(C)C)C(=O)N1)[C@@H](C)O)C(C)C)[C@@H](C)CC)[C@@H](C)O)C(=O)N[C@@H](CC(=O)O)C(=O)N[C@@H](CCCCN)C(=O)N[C@H](C(=O)N[C@@H](CC(C)C)C(=O)N[C@@H](CCCNC(=N)N)C(=O)N1CCC[C@H]1C(=O)N[C@@H](CCC(N)=O)C(=O)NCC(=O)O)C(C)C [Compound 9] (H-RKENFL[Dab]KLKEKLRTVITSHIDKVLRPQG-OH; lactam 3-7) | –

Structure (SMILES) | MIC (S. aureus (ATCC 29213); ATCC 29213) | MIC (C. albicans (SC5314); SC5314) | also measured
CC[C@H](C)[C@@H]1NC(=O)[C@H](Cc2c[nH]cn2)NC(=O)[C@H](CO)NC(=O)[C@H]([C@@H](C)O)NC(=O)[C@H]([C@@H](C)CC)NC(=O)[C@H](C(C)C)NC(=O)[C@H]([C@@H](C)O)NC(=O)[C@H](CCCNC(=N)N)NC(=O)[C@H](CC(C)C)NC(=O)[C@H](CCCCN)NC(=O)[C@H](CCC(=O)O)NC(=O)[C@H](CCCCN)NC(=O)[C@H](CC(C)C)NC(=O)[C@H](CCCCN)NC(=O)[C@@H]2CSSC[C@H](NC(=O)[C@H](CCCCN)NC(=O)[C@H](CCCNC(=N)N)NC(=O)CNC(=O)[C@H](CCC(N)=O)NC(=O)[C@@H]3CCCN3C(=O)[C@H](CCCNC(=N)N)NC(=O)[C@H](CC(C)C)NC(=O)[C@H](C(C)C)NC(=O)[C@H](CCCCN)NC(=O)[C@H](CC(=O)O)NC1=O)C(=O)N[C@@H](CC(N)=O)C(=O)N[C@@H](Cc1ccccc1)C(=O)N[C@@H](CC(C)C)C(=O)N2 [Compound 3] (cyclo(CKLKEKLRTVITSHIDKVLRPQGRKCNFL); disulfide 1-26) | >64 µM | >64 µM | –
